A short description of data set [1]: The drug is tested on Z-024 corresponding to pig gut metagenome with ENA study accession number: PRJEB37062 and ENA sample accession number: ERS12561823 for biotransformation under anaerobic condition. The drug concentrations were measured over 9 timepoints collected between 0 and 24 hours of incubation by liquid-chromatography-coupled mass spectrometry (LC–MS). To be noted: 2 µM.

A short description of data set [2]: The drug is tested on Z-011 corresponding to mouse gut metagenome with ENA study accession number: PRJEB37062 and ENA sample accession number: ERS12561811 for biotransformation under anaerobic condition. The drug concentrations were measured over 9 timepoints collected between 0 and 24 hours of incubation by liquid-chromatography-coupled mass spectrometry (LC–MS). To be noted: 2 µM.

Data set [3] can be described thus: The drug is tested on Z-010 corresponding to metagenome with ENA study accession number: PRJEB37062 and ENA sample accession number: ERS12561810 for biotransformation under anaerobic condition. The drug concentrations were measured over 9 timepoints collected between 0 and 24 hours of incubation by liquid-chromatography-coupled mass spectrometry (LC–MS). The following applies: 2 µM.

Data set [4] in a line: The drug is tested on Z-009 corresponding to pig gut metagenome with ENA study accession number: PRJEB37062 and ENA sample accession number: ERS12561809 for biotransformation under anaerobic condition. The drug concentrations were measured over 9 timepoints collected between 0 and 24 hours of incubation by liquid-chromatography-coupled mass spectrometry (LC–MS). The following applies: 2 µM.

The nature of data set [5]: The drug is tested on Z-008 corresponding to metagenome with ENA study accession number: PRJEB37062 and ENA sample accession number: ERS12561808 for biotransformation under anaerobic condition. The drug concentrations were measured over 9 timepoints collected between 0 and 24 hours of incubation by liquid-chromatography-coupled mass spectrometry (LC–MS). The following applies: 2 µM.

Data set [6] is described as follows: The drug is tested on Z-007 corresponding to rat gut metagenome with ENA study accession number: PRJEB37062 and ENA sample accession number: ERS12561807 for biotransformation under anaerobic condition. The drug concentrations were measured over 9 timepoints collected between 0 and 24 hours of incubation by liquid-chromatography-coupled mass spectrometry (LC–MS). To be noted: 2 µM.

Data set [7] is described as follows: The drug is tested on Z-006 corresponding to mouse gut metagenome with ENA study accession number: PRJEB37062 and ENA sample accession number: ERS12561806 for biotransformation under anaerobic condition. The drug concentrations were measured over 9 timepoints collected between 0 and 24 hours of incubation by liquid-chromatography-coupled mass spectrometry (LC–MS). The following applies: 2 µM.

The nature of data set [8]: The drug is tested on Z-003 corresponding to pig gut metagenome with ENA study accession number: PRJEB37062 and ENA sample accession number: ERS12561803 for biotransformation under anaerobic condition. The drug concentrations were measured over 9 timepoints collected between 0 and 24 hours of incubation by liquid-chromatography-coupled mass spectrometry (LC–MS). To be noted: 2 µM.

Data set [9] is described as follows: The drug is tested on WLS-086 corresponding to human gut metagenome with ENA study accession number: PRJEB37062 and ENA sample accession number: ERS12561752 for biotransformation under anaerobic condition. The drug concentrations were measured over 9 timepoints collected between 0 and 24 hours of incubation by liquid-chromatography-coupled mass spectrometry (LC–MS). The following applies: 2 µM.

Data set [10] is described as follows: The drug is tested on WLS-077 corresponding to human gut metagenome with ENA study accession number: PRJEB37062 and ENA sample accession number: ERS12561750 for biotransformation under anaerobic condition. The drug concentrations were measured over 9 timepoints collected between 0 and 24 hours of incubation by liquid-chromatography-coupled mass spectrometry (LC–MS). The following applies: 2 µM.

Data set [11] in a line: The drug is tested on WLS-052 corresponding to human gut metagenome with ENA study accession number: PRJEB37062 and ENA sample accession number: ERS12561747 for biotransformation under anaerobic condition. The drug concentrations were measured over 9 timepoints collected between 0 and 24 hours of incubation by liquid-chromatography-coupled mass spectrometry (LC–MS). The following applies: 2 µM.

The nature of data set [12]: The drug is tested on WLS-007 corresponding to human gut metagenome with ENA study accession number: PRJEB37062 and ENA sample accession number: ERS12561742 for biotransformation under anaerobic condition. The drug concentrations were measured over 9 timepoints collected between 0 and 24 hours of incubation by liquid-chromatography-coupled mass spectrometry (LC–MS). The following applies: 2 µM.

The conditions of data set [13]: human gut metagenome, 24 h, 2 µM.
The conditions of data set [14]: human gut metagenome, 24 h, 2 µM. The source holds these as a separate data set.
The conditions of data set [15]: human gut metagenome, 24 h, 2 µM. This is another data set of the same source.
The conditions of data set [16]: human gut metagenome, 24 h, 2 µM. The source holds these as a separate data set.
For data set [17] the following is noted: human gut metagenome, 24 h, 2 µM. The source holds these as a separate data set.
For data set [18] the following is noted: human gut metagenome, 24 h, 2 µM. This is another data set of the same source.
For data set [19] the following is noted: human gut metagenome, 24 h, 2 µM. This is another data set of the same source.
The conditions of data set [20]: human gut metagenome, 24 h, 2 µM. The source holds these as a separate data set.
Note: call rule not given here.

As for `N=C(N)NC(=O)Cc1c(Cl)cccc1Cl` [GUANFACINE], the “Bacterial Biotransformation” value in [1], in [2], in data set [3], in [4], in data set [5] and in data set [6] was “Compound NOT metabolized” in each case. For the same molecule, the “Bacterial Biotransformation” value in [7], in data set [8], in [9], in [10], in [11] and in data set [12] was “Compound NOT metabolized” throughout. The “Bacterial Biotransformation” value in data set [13], in [14], in data set [15], in data set [16], in data set [17] and in data set [18] was “Compound NOT metabolized” each time. In addition, the “Bacterial Biotransformation” value in data set [19] and in data set [20] was “Compound NOT metabolized” throughout.

In the case of `CN(CCOc1ccc(CC2SC(=O)NC2=O)cc1)c1ccccn1.O=C(O)/C=C\C(=O)O` (stereo not given) [ROSIGLITAZONE MALEATE], the “Bacterial Biotransformation” value in data set [1], in data set [2], in data set [3], in data set [4], in [5] and in [6] was “Compound NOT metabolized” throughout. The “Bacterial Biotransformation” value in [7] is “Compound NOT metabolized”; in data set [8], “Compound NOT metabolized”; in [9] it was “Compound NOT metabolized”; in data set [10] it was “Compound NOT metabolized”; in data set [11], “Compound NOT metabolized”; in data set [12], “Compound metabolized”. Further, the “Bacterial Biotransformation” value in [13] was “Compound NOT metabolized”; in data set [14] it was “Compound metabolized”; in data set [15] it was “Compound metabolized”; in data set [16], “Compound NOT metabolized”; in data set [17] it was “Compound metabolized”; in [18] it was “Compound metabolized”. The “Bacterial Biotransformation” value in data set [19] and in data set [20] was “Compound metabolized” in each case.

In the case of `CCS(=O)(=O)CCn1c([N+](=O)[O-])cnc1C` [TINIDAZOLE], the “Bacterial Biotransformation” value in [1], in [2], in [3], in data set [4], in data set [5] and in [6] was “Compound metabolized” in each case. The “Bacterial Biotransformation” value in [7], in data set [8], in data set [9], in [10], in [11] and in [12] was “Compound metabolized” throughout. Also, the “Bacterial Biotransformation” value in data set [13] is “Compound metabolized”; in data set [14] it was “Compound metabolized”; in [15], “Compound metabolized”; in [16] it was “Compound metabolized”; in data set [17] it was “Compound metabolized”; in data set [18], “Compound NOT metabolized”. The “Bacterial Biotransformation” value in data set [19] and in data set [20] was “Compound metabolized” throughout.

Take `COc1ccnc(C[S+]([O-])c2nc3ccc(OC(F)F)cc3[nH]2)c1OC` (stereo not given) [PANTOPRAZOLE]: the “Bacterial Biotransformation” value in data set [1] is reported as “Compound metabolized”; in data set [2], “Compound metabolized”; in data set [3] it was “Compound metabolized”; in [4], “Compound NOT metabolized”; in [5], “Compound metabolized”; in data set [6] it was “Compound NOT metabolized”. Besides, the “Bacterial Biotransformation” value is “Compound metabolized” in data set [7]; “Compound NOT metabolized” in data set [8]; “Compound metabolized” in data set [9]; “Compound metabolized” in [10]; “Compound metabolized” in data set [11]; “Compound metabolized” in [12]. Besides, the “Bacterial Biotransformation” value in [13], in data set [14], in data set [15], in data set [16], in data set [17] and in data set [18] was “Compound metabolized” in each case. Also, the “Bacterial Biotransformation” value in data set [19] and in data set [20] was “Compound metabolized” throughout.

As to `C#C[C@]1(OC(C)=O)CC[C@H]2[C@@H]3CCC4=C[C@@H](OC(C)=O)CC[C@@H]4[C@H]3CC[C@@]21C` [ETHYNODIOL DIACETATE], the “Bacterial Biotransformation” value in data set [1], in data set [2], in data set [3], in data set [4], in data set [5] and in data set [6] was “Compound metabolized” each time. Also, the “Bacterial Biotransformation” value in data set [7], in [8], in data set [9], in data set [10], in [11] and in data set [12] was “Compound metabolized” in each case. Moreover, the “Bacterial Biotransformation” value is reported as “Compound metabolized” in [13]; “Compound metabolized” in data set [14]; “Compound metabolized” in data set [15]; “Compound metabolized” in data set [16]; “Compound metabolized” in [17]; “Compound NOT metabolized” in [18]. In addition, the “Bacterial Biotransformation” value in data set [19] and in [20] was “Compound metabolized” throughout.

(Values after ChEMBL document CHEMBL5724914, “Linking interpersonal differences in gut microbiota composition and drug biotransformation activity” (2024).)
